# Data as given in publication PMC4545587 (Biochimica et biophysica acta, 2013).
# No end group written: not given here.
# Legend:
# [1] = tested on: Pseudomonas aeruginosa type 1; type: cell-based
# eukaryotic cells = settings: cited from earlier work
sequence,measurement,setting,value
KLFKRHLKWKII [SC4],MIC value against P. aeruginosa,[1]; type 1,~ 18 µM
same,P.a. LD50,"[1]; type 1, pH 7",0.14 µM
same,lytic effect on eukaryotic cells,eukaryotic cells,no apparent lytic effect
